ChEMBL document CHEMBL6134852, “Electrostatic Anchoring in RNA-Ligand Design─Dissecting the Effects of Positive Charges on Affinity, Selectivity, Binding Kinetics, and Thermodynamics” (J Med Chem, 2025)

Key:
TAR RNA = test: Binding affinity to Alexa Fluor 488-labeled HIV-1 TAR RNA assessed as dissociation constant by fluorescence based analysis; assay type: nucleic-acid assay, Human immunodeficiency virus 1
[1] = biological target: S-adenosylmethionine-VI riboswitch; test: Binding affinity to Bifidobacterium angulatum SAM-VI riboswitch assessed as dissociation constant by ITC analysis; assay type: nucleic-acid assay
[2] = system: S-adenosylmethionine-VI riboswitch; test: Binding affinity to Bifidobacterium angulatum SAM-VI riboswitch assessed as assessed as binding constant (Kon) by ITC analysis; assay type: nucleic-acid assay
PreQ1 riboswitch [3] = test: Binding affinity to SA sensor chip-immobilized Tte preQ1 riboswitch aptamer assessed as dissociation constant by SPR analysis; assay type: nucleic-acid assay, Caldanaerobacter subterraneus, subsp. tengcongensis
PreQ1 riboswitch [4] = test: Binding affinity to SA sensor chip-immobilized Tte preQ1 riboswitch aptamer assessed as binding constant (Kon) by SPR analysis; assay type: nucleic-acid assay; settings: Caldanaerobacter subterraneus; subsp. tengcongensis
PreQ1 riboswitch [5] = test: Binding affinity to SA sensor chip-immobilized Tte preQ1 riboswitch aptamer assessed as binding constant (Koff) by SPR analysis; assay type: nucleic-acid assay; settings: Caldanaerobacter subterraneus; subsp. tengcongensis
PreQ1 riboswitch [6] = test: Binding affinity to SA sensor chip-immobilized Tte preQ1 riboswitch aptamer assessed as dissociation constant by SPR steady-state analysis; assay type: nucleic-acid assay, Caldanaerobacter subterraneus, subsp. tengcongensis
PreQ1 riboswitch [7] = test: Binding affinity to Tte preQ1 riboswitch aptamer assessed as dissociation constant by MST analysis; assay type: nucleic-acid assay, Caldanaerobacter subterraneus, subsp. tengcongensis
PreQ1 riboswitch [8] = test: Binding affinity to Tte preQ1 riboswitch aptamer assessed as dissociation constant by ITC analysis; assay type: nucleic-acid assay, Caldanaerobacter subterraneus, subsp. tengcongensis
PreQ1 riboswitch [9] = test: Binding affinity to Tte preQ1 riboswitch assessed as change in Gibb's free energy by ITC analysis; assay type: nucleic-acid assay; settings: Caldanaerobacter subterraneus; subsp. tengcongensis
PreQ1 riboswitch [10] = test: Binding affinity to Tte preQ1 riboswitch aptamer assessed as change in enthalpy by ITC analysis; assay type: nucleic-acid assay; settings: Caldanaerobacter subterraneus; subsp. tengcongensis
PreQ1 riboswitch [11] = test: Binding affinity to Tte preQ1 riboswitch aptamer assessed as change in entropy by ITC analysis; assay type: nucleic-acid assay; settings: Caldanaerobacter subterraneus; subsp. tengcongensis
PreQ1 riboswitch [12] = test: Binding affinity to Tte preQ1 riboswitch aptamer assessed as binding constant (Kon) by ITC analysis; assay type: nucleic-acid assay; settings: Caldanaerobacter subterraneus; subsp. tengcongensis
PreQ1 riboswitch [13] = test: Binding affinity to Tte preQ1 riboswitch aptamer assessed as binding constant (Koff) by ITC analysis; assay type: nucleic-acid assay; settings: Caldanaerobacter subterraneus; subsp. tengcongensis
Precursor microRNA-372 = test: Binding affinity to pre-miRNA-372 beacon (unknown origin) assessed as dissociation constant measured after 4 hrs by fluorescence based analysis; assay type: nucleic-acid assay
[14] = biological target: S-adenosylmethionine-VI riboswitch; test: Binding affinity to SA sensor chip-immobilized Bifidobacterium angulatum SAM-VI riboswitch aptamer assessed as dissociation constant by SPR analysis; assay type: nucleic-acid assay
[15] = system: S-adenosylmethionine-VI riboswitch; test: Binding affinity to SA sensor chip-immobilized Bifidobacterium angulatum SAM-VI riboswitch aptamer assessed as binding constant (Kon) by SPR analysis; assay type: nucleic-acid assay
[16] = system: S-adenosylmethionine-VI riboswitch; test: Binding affinity to SA sensor chip-immobilized Bifidobacterium angulatum SAM-VI riboswitch aptamer assessed as binding constant (Koff) by SPR analysis; assay type: nucleic-acid assay
[17] = biological target: S-adenosylmethionine-VI riboswitch; test: Binding affinity to SA sensor chip-immobilized Bifidobacterium angulatum SAM-VI riboswitch aptamer assessed as dissociation constant by SPR steady-state analysis; assay type: nucleic-acid assay
Ribozyme [18] = test: Binding affinity to Tetrahymena group I ribozyme (unknown origin) assessed as dissociation constant; assay type: nucleic-acid assay
Ribozyme [19] = test: Binding affinity to Tetrahymena group I ribozyme (unknown origin) assessed as binding constant (Kon); assay type: nucleic-acid assay
Ribozyme [20] = test: Binding affinity to Tetrahymena group I ribozyme (unknown origin) assessed as binding constant (Koff); assay type: nucleic-acid assay
PreQ1 riboswitch [21] = test: Binding affinity to Alexa Fluor 647-labeled Tte preQ1 riboswitch assessed as dissociation constant by fluorescence based analysis; assay type: nucleic-acid assay, Caldanaerobacter subterraneus, subsp. tengcongensis

SMILES	Kd (PreQ1 riboswitch [3]) [µM]	K (PreQ1 riboswitch [4])	koff (PreQ1 riboswitch [5]) [s⁻¹]	Kd (PreQ1 riboswitch [6]) [µM]	Kd (PreQ1 riboswitch [7]) [µM]	Kd (PreQ1 riboswitch [8]) [µM]	deltaG (PreQ1 riboswitch [9]) [kcal/mol]	deltaH (PreQ1 riboswitch [10]) [kcal/mol]	-TdeltaS (PreQ1 riboswitch [11]) [kcal/mol]	K (PreQ1 riboswitch [12])	K (PreQ1 riboswitch [13])	also measured
CC(=O)Nc1nc(-c2cccc(NC(=O)[C@H]3C[C@H](OC(=O)[C@@H](N)CCCN)[C@@H](COC(=O)[C@@H](N)CCCCN)O3)c2)cs1	–	–	–	–	–	–	–	–	–	–	–	Kd (TAR RNA): 8 µM
Nc1ncnc2c1ncn2[C@@H]1O[C@H](CSCC[C@H](N)C(=O)O)[C@@H](O)[C@H]1O [S-ADENOSYLHOMOCYSTEINE]	150	3.88 10^2/Ms	0.054	121	34.4	14	-6.64	-8.27	1.63	3.57 10^3/M/s	4.58 10^-2/s	Kd [1]: 10.9 µM; K [2]: 5.5 10^3/M/s
C[S+](CC[C@H](N)C(=O)[O-])C[C@H]1O[C@@H](n2cnc3c(N)ncnc32)[C@H](O)[C@@H]1O (stereo partly specified) [ADEMETIONINE]	3.72	2.98 10^3/Ms	–	4.53	0.718	0.671	-8.44	-14.5	6.09	2.13 10^4/M/s	1.42 10^-2/s	Kd [1]: 0.33 µM; K [2]: 2.46 10^4/M/s
CC(=O)Nc1csc(-c2cccc(NC(=O)CCc3cn(C[C@H]4O[C@@H](O[C@@H]5[C@@H](O)[C@H](N)C[C@H](N)[C@H]5O[C@H]5O[C@H](CN)[C@@H](O)[C@H](O)[C@H]5N)[C@H](O)[C@@H]4O[C@H]4O[C@@H](CN)[C@@H](O)[C@H](O)[C@H]4N)nn3)c2)n1	–	–	–	–	–	–	–	–	–	–	–	Kd (Precursor microRNA-372): 0.016 µM
NCCCNC[C@H]1O[C@@H](n2cnc3c(N)ncnc32)[C@H](O)[C@@H]1O	4.17	1.28 10^4/Ms	0.0481	15.9	9.75	1.73	-7.89	-20.9	13	1.36 10^4/M/s	2.38 10^-2/s	Kd [14]: 3.1 µM; K [15]: 1.48 10^4/M/s; K [16]: 4.59 10^-2/s; Kd [17]: 6.05 µM
Nc1ncnc2c1ncn2[C@@H]1O[C@H](CNCC[C@H](N)C(=O)O)[C@@H](O)[C@H]1O	12.3	2.94 10^3/Ms	0.0361	20.7	33.3	3.31	-7.48	-22.8	15.3	1.54 10^4/M/s	4.66 10^-2/s	–
NC[C@@H]1O[C@H](O[C@H]2[C@@H](O)[C@H](O[C@@H]3[C@@H](O)[C@H](N)C[C@H](N)[C@H]3O[C@H]3O[C@H](CN)[C@@H](O)[C@H](O)[C@H]3N)O[C@@H]2CO)[C@H](N)[C@@H](O)[C@@H]1O [FRAMYCETIN]	–	–	–	–	–	–	–	–	–	–	–	Kd (Precursor microRNA-372): 7.4 µM
Nc1nc2c(ncn2[C@@H]2O[C@H](CO)[C@@H](O)[C@H]2O)c(=O)[nH]1 [GUANOSINE]	–	–	–	–	–	–	–	–	–	–	–	Kd (Ribozyme [18]): 110 µM; K (Ribozyme [19]): 4 10^5/M/min; K (Ribozyme [20]): 44 min⁻¹
NCCOc1ccc2oc3ccccc3c2c1	–	–	–	–	–	–	–	–	–	–	–	Kd (PreQ1 riboswitch [21]): 0.5 µM
Nc1nc2c(ncn2[C@H]2C[C@H](N)[C@@H](CO)O2)c(=O)[nH]1	–	–	–	–	–	–	–	–	–	–	–	Kd (Ribozyme [18]): 0.094 µM; K (Ribozyme [19]): > 2.1 10^7/M/min; K (Ribozyme [20]): > 2 min⁻¹
